Experimental data: patent US20140275257A1, “N-ACETYL CYSTEINE COMPOSITIONS IN THE TREATMENT OF SYSTEMIC LUPUS ERYTHEMATOSUS” (Foundation for the State University of New York, priority 2013, published 2014)

Columns and labels:
SLE patients = experiment: Tolerance and safety, double-blind placebo-controlled pilot study of NAC in SLE; type: in vivo, human
Method: 36 patients with stable disease were enrolled in a double-blind placebo-controlled treatment trial with N-acetylcysteine (NAC; FDA approval, IND No: 101,320; clinicaltrials.gov identifier: NCT00775476). SLE patients were randomized to receive either placebo (placebo group—dextrose) or NAC (test group) in one of three treatment arms of increasing doses for three months: 600 mg twice daily (Dose 1), 1,200 mg twice daily (Dose 2), or 2,400 mg twice daily (Dose 3). 12 patients were enrolled per treatment arm, 9 received NAC while 3 received placebo.
At each visit, patients were specifically asked about common side effects (nausea, bloating, bad taste) seen in prior trials These side effects were reviewed by the Data Safety and Monitoring Board (DSMB) bi-annually. Tolerance and safety were primary clinical outcomes.
All 24 patients in Dosing Group 1 (1.2 g/day NAC) and 2 (2.4 g/day NAC) completed the treatment and none of the […] in Dosing Group 1 (1.2 g/day NAC) or 2 (2.4 g/day NAC) reported unpleasant smell or taste. Three of 12 patients in Dosing Group 3 (4.8 g/day) dropped out (Table 6) due to 1) heartburn after 26 days, which resolved after discontinuing the capsules; 2) recurrent nausea and one-time vomiting after 46 days, with resolution after discontinuing the capsules; 3) headaches, which were eliminated by halving the dose to 2.4 g/day. Since all three patients reporting intolerance received NAC, in accordance with the DSMP, no higher dose was initiated. Following the last Dosing Group 3 visit, the study was un-blinded.

lupus T cells = experiment: Flow cytometry of mitochondrial transmembrane potential, mitochondrial mass, H2O2 and NO in T cells of treated SLE patients; type: in vivo, human
Excerpt: Cell viability was monitored with annexin V conjugated to fluorescein isothiocyanate (annexin V-FITC conjugate), annexin V conjugated to phycoerythrin (annexin V-PE conjugate), or annexin V conjugated to fluorochrome Cy5 (Annexin V-Cy5 conjugate) matched with emission spectra of propidium iodide (PrI) to detect Annexin V+/PrI− apoptotic cells. Mitochondrial transmembrane potential (ΔΨm) was monitored with mitochondrial potentiometric dyes such as 3,3′-dihexyloxacarbocyanine iodide ((DiOC6), using an excitation wavelength of […] and emission at 488 nm, recorded at 525 nm in the FL-1 (green fluorescence) channel); and tetramethylrhodamine, methyl ester ((TMRM), using an excitation wavelength of […], and emission at 543 nm, recorded at 567 nm in the FL-2 (yellow/orange fluorescence) channel), potential-insensitive mitochondrial dyes such as MitoTracker Green-FM (MTG, 100 nM; excitation: 490 nm, emission: 516 nm recorded in FL-1) or nonyl acridine orange (NAO, 50 nM; excitation: 490 nm, emission: 540 nm recorded in FL-1), superoxide sensing hydroethidine (HE, 1 μM) and H2O2-sensing dichlorofluorescein diacetate (DCF-DA, 1 μM), nitric oxide sensor 4-amino-5-methylamino-2′,7′-difluoroflourescein diacetate (DAF-FM, 1 μM, excitation: 495, emission: 515 nm recorded in FL-1), or cytosolic probes (Fluo-3, 1 μM, excitation: 506 nm, emission: 526 nm recorded in FL-1) and mitochondrial Ca^2+-sensitive fluorescent probes (Rhod-2, 1 μM), respectively.
All metabolic and mitochondrial sensor dyes were obtained from Invitrogen (Carlsbad, Calif.) and used as earlier described in Fernandez, D. R. et al., “Activation of mTOR controls the loss of TCR in lupus T cells through HRES-1/Rab4-regulated lysosomal degradation,” J. Immunol., 182: 2063-2073 (2009); Banki, K. et al., “Glutathione Levels and Sensitivity to Apoptosis Are Regulated by changes in Transaldolase expression,” J. Biol. Chem., 271: 32994-33001 (1996); Banki, K. et al., “Elevation of mitochondrial transmembrane potential and reactive oxygen intermediate levels are early events and occur independently from activation of caspases in Fas signaling,” J. Immunol., 162: 1466-1479 (1999); Nagy, G. et al., “T cell activation-induced mitochondrial hyperpolarization is mediated by Ca^2+- and redox-dependent production of nitric oxide,” J. Immunol., 171: 5188-5197 (2003); and Perl, A. et al., “Apoptosis and mitochondrial dysfunction in lymphocytes of patients with systemic lupus erythematosus,” In: Perl, A., editor. Autoimmunity: Methods and Protocol. 1 ed. Totowa, N.J.: Humana; 2004 p. 87-114, the entire disclosures of each of which are incorporated by reference herein.
NO production (FIG. 3D: DAF-FM fluorescence), and mitochondrial mass were measured in T cell subsets following CD3/CD28 stimulation for 16 h (FIG. 3E: NAO fluorescence). FIG. 3F: Spontaneous apoptosis rate was enumerated by the percentage of Ann V+/PrI− T cells after culture for 16 h. FIG. 3G: Activation-induced apoptosis was assessed following CD3/CD28 co-stimulation for 16 h. Visits: visit 1, before 1st NAC dose; visit 2, after 1-month treatment; visit 3, after 2-month treatment; visit 4, after 3-month treatment; visit 5, after 1-month washout.

[1] = Double Negative (DN) T cells after 3-month NAC treatment, declined after washout

## CC(=O)N[C@@H](CS)C(=O)O [NAC, N-acetyl-L-cysteine]
SLE patients; Dosing Group 1 (1.2 g/day NAC) or 2 (2.4 g/day NAC)
  patients reporting unpleasant smell or taste: none
SLE patients; Dosing Group 3 (4.8 g/day), all three received NAC
  patients dropped out (heartburn; recurrent nausea and vomiting; headaches): Three of 12
SLE patients; all SLE patients, up to 2.4 g/day
  safety and tolerance: safe and tolerated
SLE patients; patients receiving 4.8 g/day
  patients with reversible nausea: 33%
Lupus T cells; DN T cells following CD3/CD28 co-stimulation
  Mitochondrial mass: robustly increased
Lupus T cells; [1]
  H2O2 levels: increased
  Mitochondrial mass: increased
Lupus T cells; after 3 months, p=0.002
  production of NO: 1.61±0.17 fold
Lupus T cells; all T cells, p=0.0001
  Δψm (mitochondrial transmembrane potential): increased
